Data published in PubChem BioAssay AID1963845 (Molecular Pharmacology Branch, DTP, NCI, 2024).

System: 429239-143-T-J1-PDC complex spheroid viability
Assay: Anticancer human tumor 429239-143-T-J1-PDC patient-derived small cell lung carcinoma cell line growth inhibition [POLQ]
Conditions: for IC50: curve of first compound; for viability, T/C: stronger effect = lower value
Experimental: Multicellular complex tumor spheroid response to Polymerase (POL) inhibitors (novobiocin, ART-558, RP6685) in combination with a variety of drugs and investigational agents in selected tumor cell lines
The POL inhibitors (novobiocin, ART-558, and RP6685) were evaluated both individually and in combination with standard of care and investigational anticancer small molecules within a complex spheroid model of solid tumors. . Complex spheroids include a stromal component modeled by human endothelial cells (HUVEC) and fibroblasts modeled by human mesenchymal stem cells (MSCs). The concentration ranges selected for each drug and investigational agent were based upon clinically achievable concentrations if the clinical Cmax of the agent was known.
Compounds. The drugs and investigational agents: novobiocin (NSC847541), ART-558 (NSC835418), RP-6685 (NSC848927), peposertib (NSC802822), ceralasertib (NSC780249), elimusertib (NSC800525), camonsertib (NSC841442), AZD-1390 (NSC803789), olaparib (NSC753686), talazoparib (NSC767125), rucaparib (NSC756644), sotorasib (NSC818433), MRTX-1133 (NSC836407), SN-38 (NSC673596), topotecan (NSC609699), epotoside (NSC141540), doxorubicin (NSC123127), gemcitabine (NSC613327), 5-fluorouracil (NSC19893), paclitaxel (NSC125973), vemurafenib (NSC761431), MSA-2 (NSC828583), SN-011 (NSC837082), adavosertib (NSC754352), prexasertib (NSC758257), carboplatin (NSC241240) and oxaliplatin (NSC266046), were obtained from the National Cancer Institute (NCI) Developmental Therapeutics Program Chemical Repository (21). The FDA-approved anticancer drug set is available from the Developmental Therapeutics Program at https://dtp.cancer.gov/organization/dscb/obtaining/. […] The stock solutions were prepared in dimethyl sulfoxide (DMSO, Sigma-Aldrich, St. Louis, MO, cat. D2650), except for the platinum compounds which were prepared in saline (Quality Biological, Gaithersburg, MD, cat. 114-055-101), at 800-fold the tested concentration and stored at -70 degrees C prior to their use. All drugs and investigational agents were tested over a range starting from a high concentration at or near the clinical Cmax and decreasing in half-log increments. If the clinical Cmax for an agent had not been determined, the highest concentration tested was 10 microM, except for SN-38, which was tested at a high concentration of 1 microM.
Cell Culture. All cells were maintained in an incubator at 37 degrees C and 5% CO2 with 95% humidity. The PDC lines were cultured according to standard operating procedures established by the NCI PDMR (https://pdmr.cancer.gov). Table 3 of the manuscript, lists the cell lines along with the number of the three cell types plated to form the mct-spheroids and media for tumor cell growth. After thawing, all PDC lines, except 997537-175-T-J1-PDC and 415267-285-R-J2-PDC, were cultured in Matrigel-coated flasks prepared with a working solution of 1X Ham's F-12 nutrient mix, without supplementation (Thermo Fisher Scientific, cat. 11765054), 100 U/mL penicillin-streptomycin (Thermo Fisher Scientific, cat. 15140122), and 2.5% Matrigel (Corning Inc., Corning, NY, cat. 354248) for the first three passages. The two PDC lines 997537-175-T-J1-PDC and 415267-285-R-J2-PDC were cultured on uncoated flasks. The 857933-349-R-J2-PDC line was cultured in 6C/Colon 1B media containing advanced DMEM/F-12 (Thermo Fisher Scientific, cat. 12634028), 10 mM HEPES (Thermo Fisher Scientific, cat. 15630080), 1X GlutaMAX supplement (Thermo Fisher Scientific, cat. 35050061), 0.1 mg/mL primocin (InvivoGen, San Diego, CA, cat. ant-pm-2), 10% defined fetal bovine serum, heat inactivated (HyClone Laboratories Inc., Logan, UT, cat. SH30070.03HI), 50% L-WRN conditioned media (ATCC, cat. CRL-3276), 1.25 mM N-Acetyl-L-cysteine (Sigma-Aldrich, cat. A9165), 10 mM nicotinamide (Sigma-Aldrich, cat. N0636), 1X B-27 supplement (Thermo Fisher Scientific, cat. 17504044), 1X N-2 supplement (Thermo Fisher Scientific, cat. […]

[1] = second compound 0.0316 µM, first compound 0.0316 µM
[2] = second compound 0.0316 µM, first compound 0.1 µM
[3] = second compound 0.1 µM, first compound 0.0316 µM
[4] = second compound 0.1 µM, first compound 0.1 µM
[5] = second compound 0.316 µM, first compound 0.0316 µM
[6] = second compound 0.316 µM, first compound 0.1 µM
[7] = second compound 1 µM, first compound 0.0316 µM
[8] = second compound 1 µM, first compound 0.1 µM
[9] = second compound 3.16 µM, first compound 0.0316 µM
[10] = second compound 3.16 µM, first compound 0.1 µM
[11] = second compound 10 µM, first compound 0.0316 µM
[12] = second compound 10 µM, first compound 0.1 µM
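Also: luminescence signal used as surrogate measure of viable cells; spheroids exposed to compounds for seven days before readout.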
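For viability, T/C in this document: 100% = DMSO vehicle control viability as luminescence relative to vehicle.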

## C#Cc1c(F)ccc2cc(O)cc(-c3ncc4c(N5CC6CCC(C5)N6)nc(OCC56CCCN5CC(F)C6)nc4c3F)c12 (centres undefined) + COC1C(OC(N)=O)C(O)C(Oc2ccc3c(O)c(NC(=O)c4ccc(O)c(CC=C(C)C)c4)c(=O)oc3c2C)OC1(C)C
Second compound 0.0316 µM
  IC50: > 10000 nM
Second compound 0.1 µM
  IC50: > 10000 nM
Second compound 0.316 µM
  IC50: > 10000 nM
Second compound 1 µM
  IC50: > 10000 nM
Second compound 3.16 µM
  IC50: > 10000 nM
Second compound 10 µM
  IC50: > 10000 nM
[1]
  viability, T/C: 109%
[2]
  viability, T/C: 92.7%
Second compound 0.0316 µM, first compound 0.316 µM
  viability, T/C: 113%
Second compound 0.0316 µM, first compound 1 µM
  viability, T/C: 92.9%
Second compound 0.0316 µM, first compound 3.16 µM
  viability, T/C: 99.9%
Second compound 0.0316 µM, first compound 10 µM
  viability, T/C: 92.9%
[3]
  viability, T/C: 104%
[4]
  viability, T/C: 113%
Second compound 0.1 µM, first compound 0.316 µM
  viability, T/C: 103%
Second compound 0.1 µM, first compound 1 µM
  viability, T/C: 97.7%
Second compound 0.1 µM, first compound 3.16 µM
  viability, T/C: 93.2%
Second compound 0.1 µM, first compound 10 µM
  viability, T/C: 91.1%
[5]
  viability, T/C: 104%
[6]
  viability, T/C: 95.3%
Second compound 0.316 µM, first compound 0.316 µM
  viability, T/C: 99.2%
Second compound 0.316 µM, first compound 1 µM
  viability, T/C: 98.8%
Second compound 0.316 µM, first compound 3.16 µM
  viability, T/C: 95.2%
Second compound 0.316 µM, first compound 10 µM
  viability, T/C: 106%
[7]
  viability, T/C: 94.7%
[8]
  viability, T/C: 106%
Second compound 1 µM, first compound 0.316 µM
  viability, T/C: 96%
Second compound 1 µM, first compound 1 µM
  viability, T/C: 105%
Second compound 1 µM, first compound 3.16 µM
  viability, T/C: 98.8%
Second compound 1 µM, first compound 10 µM
  viability, T/C: 97.4%
[9]
  viability, T/C: 103%
[10]
  viability, T/C: 101%
Second compound 3.16 µM, first compound 0.316 µM
  viability, T/C: 102%
Second compound 3.16 µM, first compound 1 µM
  viability, T/C: 92.9%
Second compound 3.16 µM, first compound 3.16 µM
  viability, T/C: 114%
Second compound 3.16 µM, first compound 10 µM
  viability, T/C: 98.2%
[11]
  viability, T/C: 101%
[12]
  viability, T/C: 98.7%
Second compound 10 µM, first compound 0.316 µM
  viability, T/C: 91.5%
Second compound 10 µM, first compound 1 µM
  viability, T/C: 92.5%
Second compound 10 µM, first compound 3.16 µM
  viability, T/C: 106%
Second compound 10 µM, first compound 10 µM
  viability, T/C: 102%

## Cn1ncnc1[C@H]1c2n[nH]c(=O)c3cc(F)cc(c23)N[C@@H]1c1ccc(F)cc1 + Cc1cccc(N(C)C(=O)C2C(O)CCN2c2nc(C)cc(C(F)(F)F)c2C#N)c1
Second compound 0.0316 µM
  IC50: 19.8 nM
Second compound 0.1 µM
  IC50: 19 nM
Second compound 0.316 µM
  IC50: 24.6 nM
Second compound 1 µM
  IC50: 19.3 nM
Second compound 3.16 µM
  IC50: 27 nM
Second compound 10 µM
  IC50: 11.5 nM
Second compound 0.0316 µM, first compound 0.000316 µM
  viability, T/C: 107%
Second compound 0.0316 µM, first compound 0.001 µM
  viability, T/C: 107%
Second compound 0.0316 µM, first compound 0.00316 µM
  viability, T/C: 88.4%
Second compound 0.0316 µM, first compound 0.01 µM
  viability, T/C: 62.4%
[1]
  viability, T/C: 42.7%
[2]
  viability, T/C: 29.6%
Second compound 0.1 µM, first compound 0.000316 µM
  viability, T/C: 87.6%
Second compound 0.1 µM, first compound 0.001 µM
  viability, T/C: 98.4%
Second compound 0.1 µM, first compound 0.00316 µM
  viability, T/C: 78.1%
Second compound 0.1 µM, first compound 0.01 µM
  viability, T/C: 65.9%
[3]
  viability, T/C: 34.7%
[4]
  viability, T/C: 39.8%
Second compound 0.316 µM, first compound 0.000316 µM
  viability, T/C: 93.5%
Second compound 0.316 µM, first compound 0.001 µM
  viability, T/C: 86.2%
Second compound 0.316 µM, first compound 0.00316 µM
  viability, T/C: 73.3%
Second compound 0.316 µM, first compound 0.01 µM
  viability, T/C: 65.7%
[5]
  viability, T/C: 44.7%
[6]
  viability, T/C: 29.2%
Second compound 1 µM, first compound 0.000316 µM
  viability, T/C: 97.1%
Second compound 1 µM, first compound 0.001 µM
  viability, T/C: 98.7%
Second compound 1 µM, first compound 0.00316 µM
  viability, T/C: 74.6%
Second compound 1 µM, first compound 0.01 µM
  viability, T/C: 57.8%
[7]
  viability, T/C: 47.1%
[8]
  viability, T/C: 31.8%
Second compound 3.16 µM, first compound 0.000316 µM
  viability, T/C: 95.8%
Second compound 3.16 µM, first compound 0.001 µM
  viability, T/C: 83%
Second compound 3.16 µM, first compound 0.00316 µM
  viability, T/C: 84.4%
Second compound 3.16 µM, first compound 0.01 µM
  viability, T/C: 60.5%
[9]
  viability, T/C: 49.1%
[10]
  viability, T/C: 30.2%
Second compound 10 µM, first compound 0.000316 µM
  viability, T/C: 91.8%
Second compound 10 µM, first compound 0.001 µM
  viability, T/C: 86.1%
Second compound 10 µM, first compound 0.00316 µM
  viability, T/C: 98.5%
Second compound 10 µM, first compound 0.01 µM
  viability, T/C: 51.8%
[11]
  viability, T/C: 41.2%
[12]
  viability, T/C: 32%
